Measured values as given in PMC11742793 (BMC Chemistry, 2025).

Molecular target: P. falciparum lactate dehydrogenase (PfLDH) (Plasmodium falciparum, UniProt Q76NM3)
Experiment: microscale thermophoresis
Assay type: binding

Sequence of P. falciparum lactate dehydrogenase (PfLDH) (Q76NM3 1-316): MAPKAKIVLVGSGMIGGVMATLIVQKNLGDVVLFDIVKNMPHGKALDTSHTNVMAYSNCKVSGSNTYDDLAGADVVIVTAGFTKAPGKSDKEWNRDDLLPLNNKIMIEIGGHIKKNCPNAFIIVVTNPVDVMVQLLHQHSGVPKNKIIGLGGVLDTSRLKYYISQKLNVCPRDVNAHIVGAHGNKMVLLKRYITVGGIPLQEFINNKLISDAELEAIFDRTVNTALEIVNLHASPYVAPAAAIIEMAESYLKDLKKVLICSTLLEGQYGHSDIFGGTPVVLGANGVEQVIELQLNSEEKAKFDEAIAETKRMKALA

`C=C(C)[C@@H]1CC[C@]2(C(=O)O)CC[C@]3(C)[C@H](CC[C@@H]4[C@@]5(C)CC[C@H](O)C(C)(C)[C@@H]5CC[C@]43C)[C@@H]12` [BA, betulinic acid] gave a Kd of 0.104 µM.
